Data set [1] concerns rhythmic bladder contractions induced by substance P. Nature of the data set: Inhibitory effect on the rhythmic bladder contractions induced by substance P in anesthetized rats. It counts as in vivo, rat. Conditions: time during which frequency of rhythmic contraction was completely inhibited, 0.25 mg/kg of the compound, substance P infusion. In a few lines:
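Urethane-anesthetized female Sprague-Dawley rats with rhythmic bladder contractions driven by i.v. substance P (0.33 μg/kg/min). Compound given i.v. in saline/0.5% Tween 80 once contractions stable 15 min; intravesical pressure monitored, duration of 100% inhibition ranked A ≥20, B ≥10, C <10 min.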

Data set [2] has as its system isolated rabbit urinary bladder. Put plainly: Relaxation effect on potassium-induced contraction of isolated rabbit urinary bladder. It counts as cell-based. The note with it: Oryctolagus cuniculus; 50% relaxation concentration; high-K+ (30 mM) pre-contracted rabbit bladder strips; relaxation as percentage of the maximum produced by 0.1 mM papaverine; read-out: EC50 value range. In a few lines: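 Mucosa-free longitudinal bladder strips from male NZW rabbits, held at 37 °C in Krebs solution gassed with 95% O2/5% CO2, were precontracted with 30 mM K+. Compounds were added cumulatively (10^−8–10^−4 M), with isometric relaxation expressed relative to 0.1 mM papaverine maximum. EC50 was derived and reported as rank ranges.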

Broadly, the melting point is the temperature of the solid-liquid transition. The EC50 is the concentration at which the effect is half-maximal.

`CCOC(=O)Cc1nc(-c2ccc(F)cc2)oc1I` [Preparation Example 295] yielded a melting point of 120 to 122 °C. Besides, the “100% inhibition time range” value in data set [1] is recorded as “B (A≧20>B≧10>C (minute))”.
`CCONC(=O)Cc1nc(-c2ccc(F)cc2)oc1-c1ccsc1` [Preparation Example 377] had a melting point of 183 to 184 °C. Further, the “100% inhibition time range” value in data set [1] is “C (A≧20>B≧10>C (minute))”. In data set [2], the EC50 lay in the range of 1 to 3 µM.
`COC(=O)c1nc(-c2ccc(F)cc2)oc1-c1ccsc1` [Preparation Example 622] had a melting point of 213 to 214 °C. The “100% inhibition time range” value in data set [1] was “B (A≧20>B≧10>C (minute))”.
Take `CS(=O)(=O)Cc1nc(-c2ccc(F)cc2)oc1-c1ccsc1` [Preparation Example 623]: the melting point is 208 to 210 °C. Moreover, the “100% inhibition time range” value in data set [1] is given as “C (A≧20>B≧10>C (minute))”. In data set [2], the EC50 lay within 1 to 3 µM.
Regarding `C[S+]([O-])Cc1nc(-c2ccc(F)cc2)oc1-c1ccsc1` (stereo not shown) [Preparation Example 624], the melting point is 173 to 174.5 °C. Further, in data set [1], the “100% inhibition time range” value is on record as “C (A≧20>B≧10>C (minute))”.
Consider `CCOC(=O)c1sccc1-c1nc(CC)c(-c2cccnc2)[nH]1` [Preparation example 10], for which the melting point is 127 to 129 °C. In addition, in data set [2], the EC50 is 1 to 3 µM.
In turn, `CCc1nc(-c2ccc(Cl)cc2)[nH]c1-c1ccccc1` [Preparation example 59] registered a melting point of 174 to 176 °C. In addition, in data set [1], the “100% inhibition time range” value is “B (A≧20>B≧10>C (minute))”. In addition, in data set [2], the concentration for a half-maximal effect (EC50) fell in the range of 1 to 3 µM.
In the case of `CCCc1nc(-c2ccc(Cl)cc2)[nH]c1-c1ccccc1` [Preparation example 60], the melting point is 147 to 149 °C. The EC50 in data set [2] was in the range of 1 to 3 µM.
For the compound `CCc1nc(-c2ccc(F)cc2)[nH]c1-c1ccccc1` [Preparation example 61], the melting point lay in the range of 169 to 170 °C. In data set [1], the “100% inhibition time range” value is recorded as “A (A≧20>B≧10>C (minute))”. Also, in data set [2], the EC50 was 1 to 3 µM.
In turn, `N#CCCc1nc(-c2ccc(F)cc2)[nH]c1-c1ccccc1` [Preparation example 62] yielded a melting point of 176 to 178 °C. Moreover, the “100% inhibition time range” value in data set [1] is on record as “C (A≧20>B≧10>C (minute))”.
Taken in the same sequence, the figures for `CCc1nc(-c2ccc(Cl)s2)oc1-c1cccnc1.Cl` [Preparation example 63, 2-(5-chlorothiophen-2-yl)-4-ethyl-5-(3-pyridyl)oxazole hydrochloride] were 201 to 204 °C and “C (A≧20>B≧10>C (minute))”.
`CCCc1nc(-c2ccc(F)cc2)[nH]c1-c1ccc(C#N)cc1` [Preparation example 95] returned a melting point of 240 to 242 °C. In addition, the concentration giving a half-maximal response (EC50) in data set [2] lay within 1 to 3 µM.
`OCc1nc(-c2ccc(F)cc2)[nH]c1-c1cccnc1` [Preparation example 113] registered a melting point of 225 to 228 °C.
On the same count and under the same terms, then `OCc1nc(-c2cccc(F)c2)[nH]c1-c1ccccc1` [Preparation example 115], with 232 to 234 °C; and `OCc1nc(-c2ccc(F)cc2)[nH]c1-c1ccccc1` [Preparation example 117], with 240 to 243 °C.
Regarding `COCc1[nH]c(-c2ccc(Cl)s2)nc1-c1cccnc1.Cl.Cl` [Preparation example 120, 2-(5-chlorothiophen-2-yl)-5-methoxymethyl-4-(3-pyridyl) imidazole dihydrochloride], the melting point was 245 to 248 °C (dec.). Further, the “100% inhibition time range” value in data set [1] is on record as “C (A≧20>B≧10>C (minute))”. The concentration giving a half-maximal response (EC50) in data set [2] was ≤ 0.5 µM.
Turning to `CSCc1nc(-c2ccc(F)cc2)[nH]c1-c1cccnc1` [Preparation example 133], the melting point fell in the range of 172 to 174 °C. For the same compound, the “100% inhibition time range” value in data set [1] is “C (A≧20>B≧10>C (minute))”.
For `CSCc1nc(-c2ccc(C#N)cc2)[nH]c1-c1cccnc1` [Preparation example 134], the melting point is 209 to 211 °C.

The values above are taken from patent publication US7759373B2, “Large conductance calcium-activated K channel opener” (Mitsubishi Tanabe Pharma Corporation, priority 2001, dated 2010).
